Source: US20260337225A1, “SMALL PEPTIDE AND USE THEREOF IN MUCOSAL REPAIR” (FORREST BIO-PHARM (SHENZHEN) CO., LTD., priority 2022, published 2026)
“And” between values parts separate entries of the source, which are not always exact repeats. Equal values may be shown once. No end group written: not given here.

Tests used:
[1] = system: mouse model of acute gastric ulcer; test: Mouse model of acute gastric ulcer (anhydrous ethanol); assay type: in vivo
Description: In this embodiment, the function of the small peptides obtained in Embodiment 2 was validated using a mouse model of acute gastric ulcer.
Control group (model group): A mouse mode of acute gastric ulcer was constructed using anhydrous ethanol (0.1 mL/10 g) (referring to the literature of Study on Action of kangfuxin Solution on Experimental Gastric ulcer [J]. Chinese Traditional Patent Medicine, 2001, 23(2): 122-124. DOI: 10.3969/j.issn.1001-1528.). After modeling, the mice were administered with an equal volume of saline.
Blank group: The mice were administered with an equal volume of saline.
Drug treatment groups: A mouse mode of acute gastric ulcer was constructed by treating the mouse with anhydrous ethanol (0.1 mL/10 g). At 2 h, 12 h, and 22 h after modeling, the mice were administered with the rice polypeptide mixture (50 mg/kg) as the mixture group, small peptide P1 (0.5 mg/kg) as the P1 group, and small peptide P2 (0.5 mg/kg) as the P2 group, respectively.
Each group consisted of 8 mice. After 24 h of modeling, the mice were sacrificed, to extract the gastric tissue, and observe changes in bleeding points and ulcer area via gastric tissue dissection.

[2] = system: rat model of chronic gastric ulcer; test: Rat model of chronic gastric ulcer (anhydrous ethanol followed by aspirin); assay type: in vivo
Description: The function of the small peptides obtained in Embodiment 2 was validated in the present embodiment by using a rat model of chronic gastric ulcer.
Control group (model group): A rat model of chronic gastric ulcer model was constructed by intragastric administration of anhydrous ethanol (1 mL/200 g), followed by intragastric administration of 200 mg/kg aspirin 2 h later. The rats were administered with aspirin once daily for 4 days. At day 5, the rats were administered with an equal volume of saline.
Blank group: The rats were administered with an equal volume of saline.
Drug treatment groups: A rat model of chronic gastric ulcer was constructed as above-mentioned. At day 5, the rats were respectively administered with the rice polypeptide mixture (50 mg/kg), small peptide P1 (0.5 mg/kg), or small peptide P2 (0.5 mg/kg) twice daily for 3 days. On day 4, the rats were sacrificed and their gastric necropsy was performed.
Positive control group (omeprazole 2.6 mg/kg): A rat model of chronic gastric ulcer was constructed as above. At day 5, the rats were administered with omeprazole (2.6 mg/kg) twice daily for 3 days. On day 4, The rats were sacrificed and their gastric necropsy was performed.
Each group consisted of 10 rats. After 24 h of modeling, the rats were sacrificed to extract the gastric tissue, for measuring gastric pH, and observing changes in ulcer area via gastric tissue dissection. Liver and kidney tissues were collected for pathological section observation to assess drug safety.

[3] = system: normal human hepatic parenchymal L-02 cells; test: Hepatotoxicity: cytotoxicity in L-02 cells by CCK-8 assay; assay type: cell-based; conditions: 10-200 μg/mL, 24 h, in words
Description: Referring to the method from a literature (Determination of emodin in L-02 cells and cell culture media with liquid chromatography-mass spectrometry: Application to a cellular toxicokinetic study. J Pharm Biomed Anal. 2012; 71:71-78), normal human hepatic parenchymal L-02 cells (obtained from Shanghai Cell Bank) were seeded into 96-well plates and treated with small peptides P1 and P2 at concentrations of 0 μg/mL, 10 μg/mL, 20 μg/mL, 50 μg/mL, 100 μg/mL, and 200 μg/mL. After 24-hour stimulation, the cytotoxicity was assessed by Cell Counting Kit-8 (CCK-8) assay.

[4] = system: normal human kidney-2 cells (HK-02, HK-2); test: Nephrotoxicity: cytotoxicity in HK-2 cells by CCK-8 assay; assay type: cell-based; conditions: 10-200 μg/mL, 24 h, in words
Description: Referring to the method from a literature (Sinomenine improve diabetic nephropathy by inhibiting fibrosis and regulating the JAK2/STAT3/SOCS1 pathway in streptozotocin-induced diabetic rats. Life Sci. 2021; 265:118855), normal human kidney-2 cells (HK-02, HK-2) (Shanghai Cell Bank) were seeded into 96-well plates and administered with small peptides P1 and P2 at concentrations of 0 μg/mL, 10 μg/mL, 20 μg/mL, 50 μg/mL, 100 μg/mL, and 200 μg/mL. After 24-hour stimulation, the cytotoxicity was assessed by Cell Counting Kit-8 (CCK-8) assay.

[5] = Animal safety observation: rat body weight; assay type: in vivo; conditions: for Rat body weight: 1000 mg/kg daily, intragastric gavage, individual rats, Rat 1-7 = c1-c7, 1000 mg/kg
Description: (§1) The rats were administered with the small peptides via intragastric gavage at doses of 500 mg/kg and 1000 mg/kg daily for 14 days. Changes in body weight were recorded. On day 14, the rats were sacrificed to measure alaninetransaminase (ALT) activity and blood urea nitrogen (BUN) levels in rat serum for assessing whether there was hepatotoxicity and nephrotoxicity in rats.

[6] = system: Rat liver; test: Animal safety observation: rat liver injury (serum alaninetransaminase activity); assay type: in vivo; conditions: 14 days; for Alaninetransaminase Activity, Average / Alaninetransaminase Activity: intragastric gavage, rat serum; for Alaninetransaminase Activity, Average: average of 6 rats, saline average P1 35.83333, P2 30.83333; for Alaninetransaminase Activity: individual rats (Rat 1-6)
Description: as §1

[7] = system: Rat kidney; test: Animal safety observation: rat kidney injury (serum blood urea nitrogen levels); assay type: in vivo; conditions: 14 days; for Blood Urea Nitrogen Levels: intragastric gavage, rat serum, individual rats (Rat 1-6)
Description: as §1

[8] = system: mucosal repair; test: Screening of active monomers for mucosal repair effects; conditions: repeated experiments and screening; in words
Description: The inventors observed the active monomers in the polypeptide mixture of Polimi-1 rice variety by mass spectrometry analysis of the polypeptides from various ordinary rice varieties and Polimi-1 rice variety. The small peptides identical to ordinary rice varieties and with high levels in ordinary rice varieties were excluded by a method of exclusion. Finally, the small peptides with higher levels in Polimi-1 rice variety and lower levels in other ordinary rice varieties were selected for further study, as well as those with higher levels in Polimi-1 rice variety and absent in other ordinary rice varieties. Since peptides with molecular weights below 1500 Daltons were extracted from the mixed polypeptide mixture previously obtained, other peptides above this threshold were excluded.

[9] = 500 and 1000 mg/kg daily, rats, in words

GPSGPELRG [Small peptide P2, GPSGPELRG]
Ulcer index ([1]; 0.5 mg/kg at 2 h, 12 h and 22 h after modeling, 8 mice, ratio of ulcer area to gastric mucosal tissue area, Control group 58.3 ± 10.1): 7.1 ± 5.5%
Ulcer inhibition rate ([1]; 0.5 mg/kg at 2 h, 12 h and 22 h after modeling, percentage reduction in ulcer area compared to the Control group): 87.8%
result compared to the mixture group ([1]; 0.5 mg/kg versus mixture 50 mg/kg, in words): better results than the mixture in larger dose
anti-ulcer effects ([1]; 0.5 mg/kg, in words): excellent anti-ulcer effects
Ulcer index ([2]; 0.5 mg/kg twice daily for 3 days, 10 rats, ratio of ulcer area to gastric mucosal tissue area, Control group 40.5 ± 5.3): 5.5 ± 3.7%
Ulcer inhibition rate ([2]; 0.5 mg/kg twice daily for 3 days, percentage reduction in ulcer area compared to the Control group): 86.4%
anti-ulcer effects ([2]; P1, P2 0.5 mg/kg, mixture 50 mg/kg, in words): exhibit anti-ulcer effects
P versus Positive control group ([2]; anti-ulcer effects compared to omeprazole 2.6 mg/kg, P1, P2 0.5 mg/kg, mixture 50 mg/kg): > 0.05
viability of normal human liver cells L-02 [3]: no effect
hepatotoxicity ([3]; L-02 cells): no hepatotoxicity
viability of normal human kidney cells HK-02 (HK-2) [4]: no effect
nephrotoxicity ([4]; HK-2 cells): no nephrotoxicity
Rat body weight ([5]; Day 1): 208 g and 215 g and 219 g and 218 g and 217 g (2×) and 214 g
Rat body weight ([5]; Day 2): 210 g and 216 g (2×) and 220 g and 221 g and 223 g and 218 g
Rat body weight ([5]; Day 3): 211 g and 220 g and 221 g and 222 g and 225 g and 210 g and 219 g
Rat body weight ([5]; Day 4): 213 g and 224 g
Rat body weight ([5]; Day 5): 214 g and 225 g (2×) and 229 g (2×) and 221 g and 226 g
Rat body weight ([5]; Day 6): 214 g and 226 g and 225 g and 231 g and 230 g and 224 g and 229 g
Rat body weight ([5]; Day 7): 215 g and 226 g and 230 g (2×) and 237 g and 232 g and 225 g
Rat body weight ([5]; Day 8): 216 g and 229 g (2×) and 233 g and 236 g and 234 g and 232 g
Rat body weight ([5]; Day 9): 221 g and 230 g and 235 g (2×) and 239 g and 234 g and 231 g
Rat body weight ([5]; Day 10): 224 g and 231 g and 238 g and 240 g and 239 g and 235 g and 237 g
Rat body weight ([5]; Day 11): 225 g and 234 g and 239 g and 242 g (2×) and 238 g and 240 g
Rat body weight ([5]; Day 12): 230 g and 235 g and 239 g and 244 g (2×) and 245 g and 240 g
Rat body weight ([5]; Day 13): 231 g and 238 g and 240 g and 245 g (2×) and 249 g and 241 g
Rat body weight ([5]; Day 14): 235 g and 239 g and 241 g and 248 g and 250 g and 244 g (2×)
Rat body weight ([5]; Day 15): 238 g and 241 g and 242 g and 250 g and 252 g and 245 g (2×)
effects on rat body weight ([5]; daily intragastric gavage for 14 days, in words): minimal effects
Alaninetransaminase Activity, Average ([6]; 500 mg/kg daily): 29.33 IU/L
Alaninetransaminase Activity ([6]; 500 mg/kg daily): 34 IU/L (2×) and 42 IU/L and 17 IU/L and 21 IU/L and 28 IU/L
Alaninetransaminase Activity, Average ([6]; 1000 mg/kg daily): 36.67 IU/L
Alaninetransaminase Activity ([6]; 1000 mg/kg daily): 29 IU/L and 43 IU/L and 45 IU/L and 33 IU/L and 32 IU/L and 38 IU/L
hepatotoxicity [6, 9]: without hepatotoxicity
Blood Urea Nitrogen Levels ([7]; 500 mg/kg daily): 19 mg/dL and 37 mg/dL and 32 mg/dL and 34 mg/dL and 42 mg/dL and 33 mg/dL
Blood Urea Nitrogen Levels ([7]; 1000 mg/kg daily): 23 mg/dL and 29 mg/dL and 35 mg/dL and 39 mg/dL and 43 mg/dL and 44 mg/dL
nephrotoxicity [7, 9]: without hepatotoxicity and nephrotoxicity
mucosal repair effects [8]: found to have mucosal repair effects
